“Also recorded” adds a separate entry of the source. Where two headings read alike, the source gives them in different places.
Experiments:
[1] = test system: vincristine induced painful neuropathy; test: Vincristine induced painful neuropathy, cold allodynia (acetone drop test); format: in vivo, Wistar rats; details: vincristine neuropathic rats
Excerpt: The aim of this study was to evaluate the effect of oral administration of butorphanol in rats with vincristine induced painful neuropathy. The primary measurements were made mechanical and thermal allodynia designed to detect effects of the treatment(s) on neuropathic pain.
(§1) Wistar rats weighing 250±20 g were maintained on standard laboratory diet and having free access to tap water ad lib were employed in the present study. They were housed in the animal house and were exposed to 12 hr cycle of light and dark. The experiments were conducted in a semi-sound proof laboratory. Care of the animals was in accordance with guidelines for experimentation on animals.
The vincristine model was adapted from Authier et al (1999). Rats were injected on five alternate days (day 4, 6, 8, 10 & 12) with vincristine (200 μg/kg i.p.) using an injection volume of 2 ml/kg. Thus, the cumulative dose of vincristine was computed to be 1 mg/kg. Tests took place three days after the last injection and continued over the next three weeks. […]
(§2) For the assessment of cold allodynia, which was stable for 3 weeks, the rats were placed on a wire mesh covered with a plastic dome and were allowed to habituate until the exploratory behavior diminished. Cold allodynia was measured as the number of foot withdrawal responses after application of stimuli to the plantar surface of the paw. […] Acetone was applied two times (once every 5 min) on the left paw, and the number of reactions (shaking, tapping, or licking) was counted during 30 sec. […] The score was expressed as accumulated numbers of reactions over the trials and determined before and 30 and 60 min after administration of the test drugs. Each individual test was expressed as a percentage of maximum possible effect (% MPE): […]
(§3) MPE (%) at 30 min time point was employed as a quantitative measure of the analgesic effect of the test drugs.
(§4) The anti-nociceptive effect was plotted assessed having time (relative to dosing time point) on the x-axis and percent maximum possible effect (% MPE) on the y-axis. The results were expressed as mean±standard error of means (S.E.M.). […]

[2] = test system: paclitaxel induced painful neuropathy; test: Paclitaxel induced painful neuropathy, cold allodynia (acetone drop test); format: in vivo, Wistar rats; details: paclitaxel neuropathic rats
Excerpt: (§5) The aim of this study was to evaluate the effect of oral administration of butorphanol in rats with paclitaxel induced painful neuropathy. The primary measurements were made mechanical and thermal allodynia designed to detect effects of the treatment(s) on neuropathic pain.
as §1
Rats were injected on five alternate days (day 4, 6, 8, 10 & 12) with paclitaxel (2 mg/kg i.p.) using an injection volume of 2 ml/kg. Thus, the cumulative dose of paclitaxel was computed to be 10 mg/kg. Tests took place ten days after the last injection and continued over the next three weeks. […]
as §2, §3, §4

[3] = cited from earlier work; for duration of analgesic effect (median time to requesting rescue analgesia): acute postsurgical pain
[4] = test system: paclitaxel induced painful neuropathy; test: Paclitaxel induced painful neuropathy, mechanical allodynia (von Frey filaments); format: in vivo, Wistar rats; details: paclitaxel neuropathic rats
Excerpt: as §5, §1
Rats were injected on five alternate days (day 4, 6, 8, 10 & 12) with paclitaxel (2 mg/kg i.p.) using an injection volume of 2 ml/kg. Thus, the cumulative dose of paclitaxel was computed to be 10 mg/kg. […]
Mechano-allodynia was assessed using von Frey filaments. […] Both hind paws were tested for allodynia and the average of the two was recorded as data. Results were expressed in grams and determined before and 30 and 60 min after the administration of the test drugs.
as §4

κ-opioid receptors = κ-opioid receptors (Homo sapiens, UniProt P41145); details: cited from earlier work
κ-opioid receptors, sequence (P41145 whole entry): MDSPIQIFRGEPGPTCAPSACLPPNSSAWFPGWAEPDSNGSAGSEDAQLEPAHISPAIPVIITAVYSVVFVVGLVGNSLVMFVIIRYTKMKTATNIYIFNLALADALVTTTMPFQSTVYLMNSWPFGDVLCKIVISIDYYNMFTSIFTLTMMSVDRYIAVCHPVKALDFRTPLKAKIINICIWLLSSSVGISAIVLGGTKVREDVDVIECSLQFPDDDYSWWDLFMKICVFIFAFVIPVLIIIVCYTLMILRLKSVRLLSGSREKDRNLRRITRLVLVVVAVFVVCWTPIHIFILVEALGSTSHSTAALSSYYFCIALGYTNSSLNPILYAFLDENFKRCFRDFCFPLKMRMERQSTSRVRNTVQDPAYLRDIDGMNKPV

With Oc1ccc2c(c1)[C@@]13CCCC[C@@]1(O)[C@@H](C2)N(CC1CCC1)CC3 [butorphanol, (−)17-(Cyclobutylmethyl)morphinan-3,14-diol] the cold allodynia score ([1]; oral 1, 3, 10, 30 mg/kg, FIG. 16) was “dose dependent decrease”, the “cold allodynia withdrawal threshold in comparison to the control readings” value ([1]; oral) was “significant increase” and the “time of peak effect post-administration (cold allodynia)” value ([1]; oral) was 30 min. The “cold allodynia withdrawal threshold in comparison to the control readings” value ([2]; oral) was “significant increase”, the “time of peak effect post-administration (cold allodynia)” value ([2]; oral) was 30 min and the cold allodynia score ([2]; p.o. 0.01, 0.03, 0.1, 0.3 mg/kg, FIG. 18) was “dose dependent decrease”. For the same compound, the “duration of analgesic effect (median time to requesting rescue analgesia)” value ([3]; 1 mg intranasal dose) was “less than 2 hours”, the “subjects requiring rescue analgesia during the first 6 hours of observation” value ([3]; 1 mg intranasal dose) was “about 90%” and the “duration of analgesic effect (median time to requesting rescue analgesia)” value ([3]; 2 mg intranasal dose) was “less than 2 hours”. The “subjects requiring rescue analgesia during the first 6 hours of observation” value ([3]; 2 mg intranasal dose) was “about 80%”, the “time of peak effect post-administration (mechanical allodynia)” value ([4]; oral) was 30 min and the mechanical withdrawal threshold ([4]; p.o. 0.01, 0.03, 0.1, 0.3 mg/kg, FIG. 17) was “dose dependent increase; also recorded: significant increase”. The “activity at κ-opioid receptors” value (κ-opioid receptors) was “pure agonist”.

Source: US10624887B2, “Compositions of (-)-17-(cyclobutylmethyl)morphinan-3,14,-diol” (priority 2010, dated 2020)
